{"source": "paper PMC12627232", "about": "(MedComm, 2025)", "key": {"HeLa nuclear extract": {"system": "HeLa nuclear extract", "assay": "HDAC inhibition, HeLa nuclear extract", "format": "biochemical", "description": "HDACs enzymatic assays were conducted according to our previous work. In detail, the HeLa nuclear extract, HDAC1 (BPS BIOSCIENCE INC, 50051), HDAC2 (BPS BIOSCIENCE Inc; 50052), HDAC3/NCOR1 complex (BPS BIOSCIENCE Inc; 50003), HDAC4 (BPS BIOSCIENCE Inc; 50004), HDAC5 (BPS BIOSCIENCE Inc; 50005), HDAC6 (BPS BIOSCIENCE Inc; 50006), HDAC7 (BPS BIOSCIENCE Inc; 50007), HDAC8 (BPS BIOSCIENCE Inc; 50008), HDAC9 (BPS BIOSCIENCE Inc; 50009), HDAC10 (BPS BIOSCIENCE Inc; 50010), or HDAC11 (BPS BIOSCIENCE Inc; 50011) was diluted to the proper concentrations according to the relative enzymatic activity and the linear range of the plate reader and mixed with different concentrations of drugs. Substrates (Boc‐Lys(acetyl)‐AMC for HeLa nuclear extract, Ac‐Leu‐Gly‐Lys (Tfa)‐AMC for HDAC4, HDAC5, HDAC6, HDAC7, HDAC9, HDAC10, and HDAC11, Boc‐Lys(triflouroacetyl)‐AMC for HDAC8 and Ac‐Leu‐Gly‐Lys(acetyl)‐AMC for HDAC1, HDAC2, HDAC3) were added to the mixture. The blank group was set to no enzyme or drug but contains substrates and the control group was set to no drug but contains substrates and enzymes to each 96‐well plate. After 30 min of incubation at 37°C, the mixture was terminated with 1 mg/mL trypsin and 3 µM TSA. After another 30 min, the fluorescence intensity was measured using a Varioskan plate reader at 360/460 nm. […] The inhibition curves and IC50 values were simulated and calculated using the log(inhibitor) versus response (three parameters) mode in GraphPad Prism software."}, "HDAC2": {"biological_target": "T1, HDAC2 (Homo sapiens, UniProt Q92769)", "T1 construct": "purchased BPS BIOSCIENCE Inc 50052", "T1 sequence (Q92769 whole entry)": "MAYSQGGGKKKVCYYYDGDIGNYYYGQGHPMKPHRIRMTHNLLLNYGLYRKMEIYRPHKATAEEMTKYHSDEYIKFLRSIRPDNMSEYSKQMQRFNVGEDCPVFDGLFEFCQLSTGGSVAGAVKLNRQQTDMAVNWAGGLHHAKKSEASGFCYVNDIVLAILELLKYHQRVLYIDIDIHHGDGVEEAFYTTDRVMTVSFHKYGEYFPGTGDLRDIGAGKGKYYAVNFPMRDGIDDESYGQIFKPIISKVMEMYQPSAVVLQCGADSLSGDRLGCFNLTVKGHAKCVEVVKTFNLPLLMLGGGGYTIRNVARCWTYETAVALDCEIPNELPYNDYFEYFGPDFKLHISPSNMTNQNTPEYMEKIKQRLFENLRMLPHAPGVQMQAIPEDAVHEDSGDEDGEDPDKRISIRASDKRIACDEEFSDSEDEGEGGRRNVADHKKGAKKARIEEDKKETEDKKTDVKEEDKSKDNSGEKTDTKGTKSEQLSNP", "assay": "HDACs enzymatic assay HDAC2", "format": "biochemical", "settings": "Class I; mean ± SD of three", "description": "(§1) HDACs enzymatic assays were conducted according to our previous work. […] Substrates (Boc‐Lys(acetyl)‐AMC for HeLa nuclear extract, Ac‐Leu‐Gly‐Lys (Tfa)‐AMC for HDAC4, HDAC5, HDAC6, HDAC7, HDAC9, HDAC10, and HDAC11, Boc‐Lys(triflouroacetyl)‐AMC for HDAC8 and Ac‐Leu‐Gly‐Lys(acetyl)‐AMC for HDAC1, HDAC2, HDAC3) were added to the mixture. The blank group was set to no enzyme or drug but contains substrates and the control group was set to no drug but contains substrates and enzymes to each 96‐well plate. After 30 min of incubation at 37°C, the mixture was terminated with 1 mg/mL trypsin and 3 µM TSA. After another 30 min, the fluorescence intensity was measured using a Varioskan plate reader at 360/460 nm. […] The inhibition curves and IC50 values were simulated and calculated using the log(inhibitor) versus response (three parameters) mode in GraphPad Prism software."}, "HDAC4": {"biological_target": "T2, HDAC4 (Homo sapiens, UniProt P56524)", "T2 construct": "purchased BPS BIOSCIENCE Inc 50004", "T2 sequence (P56524 whole entry)": "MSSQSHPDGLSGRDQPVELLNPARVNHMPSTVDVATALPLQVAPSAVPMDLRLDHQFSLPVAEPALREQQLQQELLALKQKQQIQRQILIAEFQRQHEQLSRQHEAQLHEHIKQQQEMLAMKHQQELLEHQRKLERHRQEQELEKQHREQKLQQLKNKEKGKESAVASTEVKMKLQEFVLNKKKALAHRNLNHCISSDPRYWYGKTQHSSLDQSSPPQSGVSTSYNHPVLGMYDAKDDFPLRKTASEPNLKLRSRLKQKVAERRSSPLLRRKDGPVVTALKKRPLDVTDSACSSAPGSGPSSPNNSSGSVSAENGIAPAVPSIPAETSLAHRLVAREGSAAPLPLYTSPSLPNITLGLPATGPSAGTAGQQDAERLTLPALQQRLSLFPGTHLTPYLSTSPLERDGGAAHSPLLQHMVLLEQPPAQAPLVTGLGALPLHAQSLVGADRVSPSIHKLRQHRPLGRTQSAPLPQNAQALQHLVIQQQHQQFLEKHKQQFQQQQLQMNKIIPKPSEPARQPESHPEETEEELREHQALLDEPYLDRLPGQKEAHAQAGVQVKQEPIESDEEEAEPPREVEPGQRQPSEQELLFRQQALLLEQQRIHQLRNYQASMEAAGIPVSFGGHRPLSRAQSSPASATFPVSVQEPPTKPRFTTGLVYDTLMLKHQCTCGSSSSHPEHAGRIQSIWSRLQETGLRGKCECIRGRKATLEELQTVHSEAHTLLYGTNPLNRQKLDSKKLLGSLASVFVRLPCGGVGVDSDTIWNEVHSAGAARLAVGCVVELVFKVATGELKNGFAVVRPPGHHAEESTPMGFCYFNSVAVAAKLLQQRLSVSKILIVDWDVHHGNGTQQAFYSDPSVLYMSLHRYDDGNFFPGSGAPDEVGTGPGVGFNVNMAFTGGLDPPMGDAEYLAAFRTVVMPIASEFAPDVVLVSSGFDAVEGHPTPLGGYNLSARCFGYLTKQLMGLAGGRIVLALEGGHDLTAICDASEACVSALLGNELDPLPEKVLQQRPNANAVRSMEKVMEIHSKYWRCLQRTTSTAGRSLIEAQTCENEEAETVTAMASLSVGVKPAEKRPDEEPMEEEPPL", "assay": "HDACs enzymatic assay HDAC4", "format": "biochemical", "settings": "Class IIa", "description": "as §1"}, "HDAC5": {"biological_target": "T3, HDAC5 (Homo sapiens, UniProt Q9UQL6)", "T3 construct": "purchased BPS BIOSCIENCE Inc 50005", "T3 sequence (Q9UQL6 whole entry)": "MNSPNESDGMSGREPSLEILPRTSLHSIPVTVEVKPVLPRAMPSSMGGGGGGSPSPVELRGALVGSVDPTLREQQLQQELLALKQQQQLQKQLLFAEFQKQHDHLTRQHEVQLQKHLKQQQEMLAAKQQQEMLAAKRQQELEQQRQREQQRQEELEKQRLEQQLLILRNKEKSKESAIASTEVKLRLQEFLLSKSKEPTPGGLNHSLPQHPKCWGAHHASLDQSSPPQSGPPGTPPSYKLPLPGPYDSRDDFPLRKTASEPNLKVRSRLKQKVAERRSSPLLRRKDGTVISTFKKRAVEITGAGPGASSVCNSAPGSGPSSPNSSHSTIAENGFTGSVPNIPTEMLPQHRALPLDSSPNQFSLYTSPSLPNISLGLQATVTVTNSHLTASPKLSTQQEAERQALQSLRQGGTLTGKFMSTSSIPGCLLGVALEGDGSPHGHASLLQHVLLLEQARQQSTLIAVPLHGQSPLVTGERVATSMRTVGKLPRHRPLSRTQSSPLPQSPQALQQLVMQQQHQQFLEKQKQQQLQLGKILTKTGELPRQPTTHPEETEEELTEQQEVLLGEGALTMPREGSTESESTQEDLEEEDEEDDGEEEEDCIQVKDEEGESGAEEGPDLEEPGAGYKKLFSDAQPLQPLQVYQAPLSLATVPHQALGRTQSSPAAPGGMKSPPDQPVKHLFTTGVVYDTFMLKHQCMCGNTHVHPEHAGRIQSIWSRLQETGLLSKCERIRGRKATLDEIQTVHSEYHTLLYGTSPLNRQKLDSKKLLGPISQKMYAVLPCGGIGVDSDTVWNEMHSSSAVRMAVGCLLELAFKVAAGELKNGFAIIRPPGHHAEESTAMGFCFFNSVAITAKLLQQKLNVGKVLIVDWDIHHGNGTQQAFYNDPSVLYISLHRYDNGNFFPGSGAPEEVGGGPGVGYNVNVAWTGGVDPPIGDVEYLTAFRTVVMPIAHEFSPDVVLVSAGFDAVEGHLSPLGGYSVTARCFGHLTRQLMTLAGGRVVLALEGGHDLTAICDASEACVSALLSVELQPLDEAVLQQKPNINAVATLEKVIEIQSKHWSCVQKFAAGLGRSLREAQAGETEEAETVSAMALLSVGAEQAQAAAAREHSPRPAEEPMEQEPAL", "assay": "HDACs enzymatic assay HDAC5", "format": "biochemical", "settings": "Class IIa", "description": "as §1"}, "HDAC10": {"biological_target": "T4, HDAC10 (Homo sapiens, UniProt Q969S8)", "T4 construct": "purchased BPS BIOSCIENCE Inc 50010", "T4 sequence (Q969S8 whole entry)": "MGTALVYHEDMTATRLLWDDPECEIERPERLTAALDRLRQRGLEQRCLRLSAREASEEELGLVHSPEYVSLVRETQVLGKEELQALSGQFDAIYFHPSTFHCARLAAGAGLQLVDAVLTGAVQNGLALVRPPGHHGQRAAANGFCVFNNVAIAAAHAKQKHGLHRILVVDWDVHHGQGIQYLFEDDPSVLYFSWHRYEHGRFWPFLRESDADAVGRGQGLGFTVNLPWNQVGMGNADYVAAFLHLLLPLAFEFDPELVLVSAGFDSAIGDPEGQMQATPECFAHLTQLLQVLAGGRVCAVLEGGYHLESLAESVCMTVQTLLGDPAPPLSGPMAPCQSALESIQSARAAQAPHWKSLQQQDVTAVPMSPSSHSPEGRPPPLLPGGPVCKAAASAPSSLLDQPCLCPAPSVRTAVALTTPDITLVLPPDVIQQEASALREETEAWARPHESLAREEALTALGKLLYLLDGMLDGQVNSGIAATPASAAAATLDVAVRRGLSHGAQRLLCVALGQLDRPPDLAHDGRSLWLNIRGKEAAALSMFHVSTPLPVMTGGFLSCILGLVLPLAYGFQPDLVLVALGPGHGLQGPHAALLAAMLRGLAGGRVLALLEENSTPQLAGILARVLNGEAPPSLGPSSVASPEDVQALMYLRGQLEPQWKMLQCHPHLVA", "assay": "HDACs enzymatic assay HDAC10", "format": "biochemical", "settings": "Class IIb", "description": "as §1"}, "[1]": {"assay": "In vivo pharmacokinetic study", "settings": "Sprague-Dawley, rat, plasma, male SD rats", "description": "The compound was prepared in a 1 mg/mL working solution using DMSO/solutol/saline. SD rats (6–8 weeks old, 180–200 g, male) were purchased from Beijing HFK Bioscience Co., Ltd. (Beijing, China) and fed in accordance with the guidelines for the care and use of laboratory animals of the ethical committee of Shandong University. The doses were 2.5 mg/kg (i.v.) and 10 mg/kg (i.g.), with three animals per treatment group. Blood samples were collected from the jugular vein at different time points using heparin sodium anticoagulation tubes. After anesthetizing rats with ether, blood samples were placed in an ice water mixture for 15 min, then centrifuged at 3000×g for 3 min to separate the plasma, and stored at −20°C. The LC–MS/MS was used to detect the concentration of the analyte at each time point, and the pharmacokinetic parameters were calculated using WinNolin8.2 software."}, "[2]": {"system": "immune cells of MC38 syngeneic model", "assay": "Flow cytometry of tumor-infiltrating and spleen immune cells, MC38 model", "format": "in vivo, C57BL/6J mice", "description": "After 14 days, the tumors and spleens were split, and cells were isolated to analyze the change in cancer immunity. For TILs, the tumors were incubated with the tumor digestion fluid (collagenase and hyaluronic acid included) and then filtered with a 200‐gauge mesh and centrifuged (100×g, 1 min). The supernatant was centrifuged (400×g, 5 min) and precipitated cells were purified by 40% percoll solution followed by RBC lysis and washing. For splenocytes, the spleen was passed through a 200‐gauge mesh, and splenocytes were collected after RBC lysis and washing.\nThe prepared cell suspensions were incubated with rat serum at room temperature for 30 min to block the FC‐receptor and incubated with fluorescent antibodies at 4°C for 1 h. For Foxp3 staining, Foxp3/Transcription Factor Staining Buffer Set (eBioscience; #00‐5523‐00) was used. For intracellular cytokines staining, cells were pre‐stimulated with 1 µg/mL ionomycin (Beyotime; #S1672), 50 ng/mL PMA (Sigma; #P1585) and Brefeldin A (BioLegend; #420601) for 4 h. Flow cytometry was conducted with FACS Celesta (BD Biosciences, USA) and analyzed with FlowJo software."}}, "data": [{"compound": "O=C(CCCCCCNC(=O)c1cc(OCCc2ccccc2)c2ccccc2n1)NO", "note": "[SDFZ-8]", "values": [{"measurement": "IC50", "setting": "HeLa nuclear extract; mean ± SD of three determinations, read-out: HDAC inhibitory activity IC50 (HeLa extract)", "value": 10, "unit": "nM"}, {"measurement": "HDAC inhibitory activity surpassing LBH-589", "setting": "HeLa nuclear extract; versus LBH-589", "value": 2.5, "unit": "fold"}, {"measurement": "HDAC inhibitory activity surpassing SAHA", "setting": "HeLa nuclear extract; versus SAHA", "value": 28.6, "unit": "fold"}, {"measurement": "IC50", "setting": "HDAC2", "value": "5.8 ± 1.5", "unit": "nM"}, {"measurement": "IC50", "setting": "HDAC4", "value": "> 10000", "unit": "nM"}, {"measurement": "IC50", "setting": "HDAC5", "value": "> 10000", "unit": "nM"}, {"measurement": "IC50", "setting": "HDAC10", "value": "> 10000", "unit": "nM"}, {"measurement": "AUC(0-inf)", "setting": "[1]; iv, i.v. 2.5 mg/kg", "value": "3120 ± 242", "unit": "ng·h/mL"}, {"measurement": "AUC(0-t)", "setting": "[1]; iv, i.v. 2.5 mg/kg", "value": "2730 ± 260", "unit": "ng·h/mL"}, {"measurement": "Cmax", "setting": "[1]; iv, i.v. 2.5 mg/kg", "value": "1750 ± 498", "unit": "ng/mL"}, {"measurement": "Tmax", "setting": "[1]; iv, i.v. 2.5 mg/kg", "value": "0.08 ± 0.01", "unit": "h"}, {"measurement": "half-life", "setting": "[1]; iv, i.v. 2.5 mg/kg", "value": "2.29 ± 1.24", "unit": "h"}, {"measurement": "bioavailability", "setting": "[1]; oral, i.g. 10 mg/kg vs i.v. 2.5 mg/kg, read-out: F% (oral bioavailability)", "value": 26.1, "unit": "%"}, {"measurement": "AUC(0-inf)", "setting": "[1]; po, i.g. 10 mg/kg", "value": "3260 ± 663", "unit": "ng·h/mL"}, {"measurement": "AUC(0-t)", "setting": "[1]; po, i.g. 10 mg/kg", "value": "3080 ± 206", "unit": "ng·h/mL"}, {"measurement": "Cmax", "setting": "[1]; po, i.g. 10 mg/kg", "value": "659 ± 63.1", "unit": "ng/mL"}, {"measurement": "Tmax", "setting": "[1]; po, i.g. 10 mg/kg", "value": "0.33 ± 0.14", "unit": "h"}, {"measurement": "half-life", "setting": "[1]; po, i.g. 10 mg/kg", "value": "5.74 ± 1.51", "unit": "h"}, {"measurement": "PD-1 expression in tumor-infiltrating CD4+ T cells and CD8+ T cells", "setting": "[2]", "value": "did not affect"}, {"measurement": "PD-1 expression in tumor-infiltrating NK cells", "setting": "[2]", "value": "downregulated"}, {"measurement": "PD-L1 expression in tumor-infiltrating immune cells (DCs and macrophages)", "setting": "[2]", "value": "upregulation"}, {"measurement": "surface expression of MHC class II in DCs and macrophages", "setting": "[2]", "value": "significantly increased"}, {"measurement": "tumor-infiltrating lymphocytes (TILs)", "setting": "[2]; CD4+ and CD8+ T cells", "value": "more significant increase"}, {"measurement": "M2 polarization of TAMs", "setting": "[2]; CD206 marker", "value": "suppressed"}, {"measurement": "M1 polarization of TAMs", "setting": "[2]; iNOS marker", "value": "robustly promoted"}, {"measurement": "PD-L1 and PD-1 expression in various immune cells in the spleen", "setting": "[2]; spleen", "value": "significantly decreased"}, {"measurement": "proportion of CD4+ T cells, CD8+ T cells and NK cells in the spleen", "setting": "[2]; spleen", "value": "elevated"}, {"measurement": "expression of IFN-γ and TNF-α in CD4+ T cells and CD8+ T cells", "setting": "[2]; tumor", "value": "upregulation"}]}]}
